The test system of assay [1] is Escherichia coli. Briefly: Antimicrobial activity against Escherichia coli. In kind it is functional.
Assay [2] deals with Pseudomonas aeruginosa. Kind of assay: Antimicrobial activity against Pseudomonas aeruginosa. The format is functional.
The subject of assay [3] is Staphylococcus aureus. Briefly: Antimicrobial activity against Staphylococcus aureus. In kind it is functional.
In assay [4] the test system is Bacillus cereus. Briefly: Antimicrobial activity against Bacillus cereus. In kind it is functional.
Assay [5] concerns Candida albicans. Briefly: Antifungal activity against Candida albicans. The format is functional.
Assay [6] relates to Staphylococcus aureus. Kind of assay: Antimicrobial activity against Staphylococcus aureus assessed as zone of inhibition at 250 ug/ml. The format is functional. As to conditions: read-out: IZ.
Assay [7] relates to Bacillus cereus. Briefly: Antimicrobial activity against Bacillus cereus assessed as zone of inhibition at 250 ug/ml. In kind it is functional. As to conditions: read-out: IZ.
Assay [8] relates to Escherichia coli. Kind of assay: Antimicrobial activity against Escherichia coli assessed as zone of inhibition at 250 ug/ml. In kind it is functional. The note with it: read-out: IZ.
Assay [9] has as its system Pseudomonas aeruginosa. Briefly: Antimicrobial activity against Pseudomonas aeruginosa assessed as zone of inhibition at 250 ug/ml. The format is functional. The note with it: read-out: IZ.
The test system of assay [10] is Candida albicans. Briefly: Antifungal activity against Candida albicans assessed as zone of inhibition at 250 ug/ml. In kind it is functional. As to conditions: read-out: IZ.
In assay [11] the test system is Aspergillus niger. Kind of assay: Antifungal activity against Aspergillus niger assessed as zone of inhibition at 250 ug/ml. The format is functional. As to conditions: read-out: IZ.
Assay [12] has as its system Aspergillus niger. Kind of assay: Antifungal activity against Aspergillus niger. In kind it is functional.
Assay [13] deals with Escherichia coli. Kind of assay: Antimicrobial activity against Escherichia coli assessed as zone of inhibition at 250 ug/ml after 24 hrs by disk diffusion method. As to conditions: read-out: IZ. In kind it is functional. (In general: A growth-free zone around the sample is the usual read-out of agar diffusion tests.)
In assay [14] the test system is Staphylococcus aureus. Kind of assay: Antibacterial activity against methicillin resistant Staphylococcus aureus N315 after 24 hrs by two-fold broth serial dilution method. In kind it is functional. The note with it: N315, 24 h.
The test system of assay [15] is Bacillus subtilis. Kind of assay: Antibacterial activity against Bacillus subtilis ATCC 21216 after 24 hrs by two-fold broth serial dilution method. In kind it is functional. As to conditions: ATCC 21216, 24 h.
For another assay, the system named is Micrococcus luteus. Briefly: Antibacterial activity against Micrococcus luteus ATCC 4698 after 24 hrs by two-fold broth serial dilution method. The format is functional. The note with it: ATCC 4698, 24 h.
Assay [16] has as its system Escherichia coli. Kind of assay: Antimicrobial activity against Escherichia coli JM 109 after 24 hrs by two-fold broth serial dilution method. In kind it is functional. The note with it: JM 109, 24 h.
For assay [17], the system named is Pseudomonas aeruginosa. Kind of assay: Antimicrobial activity against Pseudomonas aeruginosa ATCC 27853 after 24 hrs by two-fold broth serial dilution method. In kind it is functional. The note with it: ATCC 27853, 24 h.
Another assay deals with Shigella dysenteriae. Kind of assay: Antimicrobial activity against Shigella dysenteriae after 24 hrs by two-fold broth serial dilution method. The format is functional.
Assay [18] has as its system Candida albicans. Briefly: Antifungal activity against Candida albicans ATCC 76615 after 24 hrs. The format is functional. As to conditions: ATCC 76615, 24 h.
The test system of the next assay is Cyberlindnera jadinii. Kind of assay: Antifungal activity against Candida utilis after 24 hrs. The format is functional. As to conditions: Williopsis jadinii.
Assay [19] concerns Aspergillus flavus. Briefly: Antifungal activity against Aspergillus flavus after 24 hrs. The format is functional.
Another assay has as its system Saccharomyces cerevisiae. Kind of assay: Antifungal activity against Saccharomyces cerevisiae after 24 hrs. In kind it is functional.
In the next assay the test system is Pichia norvegensis. Kind of assay: Antifungal activity against Candida mycoderma after 24 hrs. In kind it is functional.
The subject of assay [20] is Aspergillus flavus. Briefly: Antifungal activity against Aspergillus flavus. The format is functional.
The subject of another assay is Fusarium oxysporum. Kind of assay: Antifungal activity against Fusarium oxysporum. The format is functional.
Assay [21] deals with Bacillus subtilis. Kind of assay: Antimicrobial activity against Bacillus subtilis. In kind it is functional.
A further assay concerns Proteus vulgaris. Kind of assay: Antimicrobial activity against Proteus vulgaris. In kind it is functional.
The subject of a further assay is Salmonella typhimurium. Briefly: Antimicrobial activity against Salmonella typhimurium. The format is functional, Salmonella enterica subsp. enterica serovar Typhimurium. As to conditions: Salmonella enterica.
In a further assay the test system is Streptococcus pneumoniae. Briefly: Antimicrobial activity against Streptococcus pneumoniae. In kind it is functional.
Another assay deals with Proteus mirabilis. Briefly: Antimicrobial activity against Proteus mirabilis. In kind it is functional.
Another assay concerns Prescottella equi. Kind of assay: Antimicrobial activity against Rhodococcus equi. In kind it is functional. The note with it: Rhodococcus (subgen. Prescottella) equi.
In another assay the test system is Bacillus thuringiensis. Briefly: Antimicrobial activity against Bacillus thuringiensis. The format is functional.

Values after ≈ are worked out from the molar mass of the structure shown.

Regarding `O=[N+]([O-])c1ccc(-c2nnnn2-c2nc3ccccc3s2)cc1`, the MIC in the assay on Escherichia coli [1], against Pseudomonas aeruginosa [2], with Staphylococcus aureus [3], in the assay on Bacillus cereus [4], in the assay on Candida albicans [5] and in the assay on Aspergillus niger [12] was 50 to 100 µg/mL (≈ 154 to 308 µM) throughout. The zone of inhibition at 250 µg/mL in the assay on Staphylococcus aureus [6], in the assay on Bacillus cereus [7], in the assay on Escherichia coli [8], in the assay with Pseudomonas aeruginosa [9], with Candida albicans [10] and with Aspergillus niger [11] was 16 to 26 mm in each case. The zone of inhibition at 250 µg/mL with Escherichia coli [13] fell in the range of 18 to 26 mm.
`Cc1cc(=O)oc2cc(OCC(O)Cn3nnnc3C)cc(OCC(O)Cn3nnnc3C)c12` (configuration not stated): the MIC against Staphylococcus aureus [14], in the assay with Bacillus subtilis [15], with Micrococcus luteus, in the assay with Escherichia coli [16], against Pseudomonas aeruginosa [17] and in the assay with Shigella dysenteriae was 32 to 512 µg/mL (≈ 67.7 to 1080 µM) throughout. Besides, the minimal inhibitory concentration (MIC) against Candida albicans [18], in the assay on Cyberlindnera jadinii, against Aspergillus flavus [19], in the assay with Saccharomyces cerevisiae and in the assay with Pichia norvegensis was 32 to 512 µg/mL (≈ 67.7 to 1080 µM) in each case.
With `Clc1ccccc1C(c1ccccc1)(c1ccccc1)n1ccnc1` [CLOTRIMAZOLE], the MIC with Aspergillus flavus [20], against Aspergillus niger [12] and in the assay on Fusarium oxysporum was 100 µg/mL (≈ 290 µM) throughout.
Regarding `CO/N=C(\C(=O)N[C@@H]1C(=O)N2C(C(=O)O)=C(CSc3nc(=O)c(O)nn3C)CS[C@H]12)c1csc(N)n1` [CEFTRIAXONE], the MIC in the assay with Bacillus subtilis [21], in the assay with Proteus vulgaris, against Salmonella typhimurium, with Streptococcus pneumoniae, against Proteus mirabilis and in the assay on Prescottella equi was 0.063 to 8 µg/mL (≈ 0.114 to 14.4 µM) each time. The molecule also came in with an MIC in the assay on Bacillus thuringiensis of 0.063 to 8 µg/mL (≈ 0.114 to 14.4 µM).
With `OC(Cn1cncn1)(Cn1cncn1)c1ccc(F)cc1F` [FLUCONAZOLE], the MIC in the assay with Escherichia coli [1] is 25 µg/mL (≈ 81.6 µM); in the assay with Pseudomonas aeruginosa [2], 25 µg/mL (≈ 81.6 µM); in the assay with Staphylococcus aureus [3], 25 µg/mL (≈ 81.6 µM); against Candida albicans [5], 25 µg/mL (≈ 81.6 µM); with Staphylococcus aureus [14], 1 to 256 µg/mL (≈ 3.27 to 836 µM); in the assay on Bacillus subtilis [15] it was 1 to 256 µg/mL (≈ 3.27 to 836 µM). Further, the MIC in the assay with Micrococcus luteus, in the assay on Escherichia coli [16], in the assay with Pseudomonas aeruginosa [17], in the assay on Shigella dysenteriae, against Candida albicans [18] and against Cyberlindnera jadinii was 1 to 256 µg/mL (≈ 3.27 to 836 µM) in each case. Further, the MIC is 1 to 256 µg/mL (≈ 3.27 to 836 µM) in the assay on Aspergillus flavus [19], 1 to 256 µg/mL (≈ 3.27 to 836 µM) in the assay on Saccharomyces cerevisiae, 1 to 256 µg/mL (≈ 3.27 to 836 µM) with Pichia norvegensis and 25 µg/mL (≈ 81.6 µM) in the assay with Aspergillus niger [12].
For `Cc1cc(=O)oc2cc(OCC(O)Cn3cnnn3)ccc12` (configuration not stated), the MIC in the assay with Staphylococcus aureus [14], against Bacillus subtilis [15], against Micrococcus luteus, with Escherichia coli [16], against Pseudomonas aeruginosa [17] and against Shigella dysenteriae was 8 to 512 µg/mL (≈ 26.5 to 1690 µM) each time. Besides, the MIC in the assay on Candida albicans [18], in the assay with Cyberlindnera jadinii, against Aspergillus flavus [19], against Saccharomyces cerevisiae and with Pichia norvegensis was 8 to 512 µg/mL (≈ 26.5 to 1690 µM) throughout.
With `COc1ccc(-n2cc(-c3nnn[nH]3)nn2)cc1`, the MIC with Aspergillus flavus [20], in the assay with Aspergillus niger [12] and in the assay with Fusarium oxysporum was 100 µg/mL (≈ 411 µM) throughout.
As to `c1ccc(N2CCN(c3ncnc4c3Sc3nnnn3N4)CC2)cc1`, the MIC in the assay with Bacillus subtilis [21], against Proteus vulgaris, against Salmonella typhimurium, against Streptococcus pneumoniae, against Proteus mirabilis and against Prescottella equi was 51 to 410 µg/mL (≈ 144 to 1160 µM) in each case. Moreover, in the assay with Bacillus thuringiensis, the MIC lay within 51 to 410 µg/mL (≈ 144 to 1160 µM).
In the case of `Cc1cc(=O)oc2cc(OCC(O)Cn3cnnn3)cc(OCC(O)Cn3cnnn3)c12` (configuration not stated), the MIC against Staphylococcus aureus [14], in the assay on Bacillus subtilis [15], in the assay on Micrococcus luteus, with Escherichia coli [16], with Pseudomonas aeruginosa [17] and against Shigella dysenteriae was 32 to 512 µg/mL (≈ 72 to 1150 µM) each time. The MIC in the assay with Candida albicans [18], with Cyberlindnera jadinii, with Aspergillus flavus [19], against Saccharomyces cerevisiae and in the assay with Pichia norvegensis was 32 to 512 µg/mL (≈ 72 to 1150 µM) each time.

For orientation: MIC means the least concentration at which growth counts as inhibited. Low values mean greater potency, high ones weaker potency.

Values taken from ChEMBL document CHEMBL4342421, “Current scenario of tetrazole hybrids for antibacterial activity” (Eur J Med Chem, 2019).
